Laboratory results taken from patent publication US8263777B2, “Aminopyrazole triazolothiadiazole inhibitor of c-Met protein kinase” (Vertex Pharmaceuticals Incorporated, priority 2010, dated 2012).
Where “and” joins values, the source holds several entries; their conditions need not be identical. Equal values may be shown once.

Tests used:
c-Met [1] = molecular target: T1, c-Met (Homo sapiens, UniProt P08581); test: c-Met kinase inhibition assay (radiometric, 33P-ATP, polyE4Y); assay type: biochemical; conditions: 0.5 nM c-Met, 35 μM ATP, competitive tight-binding fit
T1 sequence (P08581 25-1390): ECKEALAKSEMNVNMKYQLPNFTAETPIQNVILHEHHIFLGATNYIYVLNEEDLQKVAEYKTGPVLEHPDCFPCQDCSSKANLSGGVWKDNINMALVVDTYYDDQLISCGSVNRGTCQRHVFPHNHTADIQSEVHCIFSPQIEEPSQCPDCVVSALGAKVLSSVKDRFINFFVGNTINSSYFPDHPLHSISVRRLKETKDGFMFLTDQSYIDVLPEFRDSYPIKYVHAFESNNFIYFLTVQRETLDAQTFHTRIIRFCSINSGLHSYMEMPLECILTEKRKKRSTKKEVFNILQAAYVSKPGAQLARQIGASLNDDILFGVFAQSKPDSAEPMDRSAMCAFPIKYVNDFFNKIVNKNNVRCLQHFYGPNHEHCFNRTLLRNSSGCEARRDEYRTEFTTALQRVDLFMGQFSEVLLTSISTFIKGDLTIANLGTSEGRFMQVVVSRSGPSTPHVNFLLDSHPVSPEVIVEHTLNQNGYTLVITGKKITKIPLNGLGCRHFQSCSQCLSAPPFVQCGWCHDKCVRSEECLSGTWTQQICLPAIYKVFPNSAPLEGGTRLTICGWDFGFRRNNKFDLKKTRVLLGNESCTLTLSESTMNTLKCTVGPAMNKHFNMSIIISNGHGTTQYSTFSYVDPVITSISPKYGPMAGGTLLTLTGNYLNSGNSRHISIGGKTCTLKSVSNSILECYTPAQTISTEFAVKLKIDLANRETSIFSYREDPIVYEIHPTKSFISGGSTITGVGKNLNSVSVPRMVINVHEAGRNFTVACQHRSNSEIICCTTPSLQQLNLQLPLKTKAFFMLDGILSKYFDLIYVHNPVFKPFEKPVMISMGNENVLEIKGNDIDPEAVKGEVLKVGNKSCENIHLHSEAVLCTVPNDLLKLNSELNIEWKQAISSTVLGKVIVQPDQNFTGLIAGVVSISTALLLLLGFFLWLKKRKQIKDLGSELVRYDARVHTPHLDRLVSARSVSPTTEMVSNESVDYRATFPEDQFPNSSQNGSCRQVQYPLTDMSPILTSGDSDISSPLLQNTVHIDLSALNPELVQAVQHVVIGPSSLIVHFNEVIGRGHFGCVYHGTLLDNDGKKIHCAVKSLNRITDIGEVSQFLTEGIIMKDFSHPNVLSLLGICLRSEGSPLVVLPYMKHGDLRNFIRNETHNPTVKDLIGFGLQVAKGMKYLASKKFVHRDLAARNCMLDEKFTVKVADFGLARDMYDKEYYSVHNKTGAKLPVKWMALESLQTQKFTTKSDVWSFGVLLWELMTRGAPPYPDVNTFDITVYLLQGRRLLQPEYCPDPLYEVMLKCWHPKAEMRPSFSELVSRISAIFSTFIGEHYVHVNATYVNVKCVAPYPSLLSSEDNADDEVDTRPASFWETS
Description: Compound 1 was screened for its ability to inhibit c-Met kinase using a standard radiometric assay. Briefly, in this kinase assay the transfer of the terminal ^33P-phosphate in ^33P-ATP to substrate polyE4Y is interrogated. The assay was carried out in 96-well plates to a final volume of 100 μL per well containing 0.5 nM c-Met, 100 mM HEPES (pH 7.5), 10 mM MgCl2, 25 mM NaCl, 0.01% BSA, 1 mM DTT, 0.5 mg/mL polyE4Y, and 35 μM ATP. Accordingly, Compound 1 was dissolved in DMSO to make a 10 mM initial stock solution. Serial dilutions in DMSO were then made to obtain the final solutions for the assay. A 1.5 μL aliquot of DMSO or inhibitor in DMSO was added to each well, followed by the addition of ^33P-ATP, and finally the addition of c-Met and polyE4Y (obtained from Sigma). After 20 min, the reaction was quenched with 50 μL of 30% trichloroacetic acid (TCA) containing 4 mM ATP. The reaction mixture was transferred to the 0.66 mm GF filter plates (Corning) and washed three times with 5% TCA. Following the addition of 50 μL of Ultimate Gold™ high efficiency scintillant (Packard Bioscience), the samples were counted in a Packard TopCount NXT Microplate Scintillation and Luminescence Counter (Packard BioScience). The Ki values were calculated using Microsoft Excel Solver macros to fit the data to the kinetic model for competitive tight-binding inhibition.

c-Met [2] = molecular target: T1, c-Met; test: Inhibition of c-Met activity in Snu5 gastric carcinoma cells (Snu5-AP1-Luc-Pest luciferase); assay type: cell-based; parameters: is a human gastric carcinoma known to overexpress c-Met, which is constitutively active; host or cells: Snu5 human gastric carcinoma cells transduced with a 6xAP1-luciferase-PEST reporter (Snu5-AP1-Luc-Pest); conditions: 6 hours, luciferase luminescence
From the text: Compound 1 was also screened for its ability to inhibit the Luciferase-induced signal in an engineered Snu5 cell line. Snu5 [obtained from American Type Culture Collection (Catalog number CRL-5973)] is a human gastric carcinoma known to overexpress c-Met, which is constitutively active. The cell line was transduced with the retrovirus, pCLPCX, which contains a genetic construct consisting of 6×AP1 promoter response elements and a luciferase gene having a C-terminal PEST sequence (proteolytic signal from mouse ornithine decarboxylase, which reduces the half-life of the luciferase). The constitutively active c-Met activates cellular pathways (principally MAP kinase), resulting in AP-1-induced transcription of luciferase-PEST and translation into the final product, the activity of which is quantifiable as a chemiluminescent readout upon the addition of luciferin (Steady-Glo from Promega.). Residual luminescence is strongly correlated to the inhibition of c-Met. A stable cell line was obtained by selecting the new cell line (Snu5-AP1-Luc-Pest) with puromycin. […] The Snu5-AP1-Luc-Pest cells were counted and diluted to 200,000-cells/mL solution. […] The plate was read on a 1450 Microbeta Liquid Scintillation and Luminescence Counter (Perkin-Elmer).

[3] = test system: SNU-5 gastric cancer cells; test: Inhibition of tumor growth of subcutaneously implanted SNU-5 cells in SCID mice; assay type: in vivo; conditions: for SNU-5 tumor weight at study termination, Mean: Day 38, group mean; for SNU-5 tumor weight at study termination, Mean / SNU-5 tumor weight at study termination, individual animal: in mg (unit assumed); for SNU-5 tumor weight at study termination, individual animal: Day 38, one value per animal ID, listed as Compound 3; for percent tumor weight reduction vs vehicle control: P<0.002
Description: SNU-5 cells (CRL-5973, American Type Culture Collection, Manassas, Va.) were cultured in ISCOVE's Modified Dulbecco's Medium (IMDM) (Invitrogen, Carlsbad, Calif.) supplemented with 10% fetal bovine serum (FBS) (Hyclone, Logan, Utah), 100 units/mL of penicillin, […] of streptomycin (Invitrogen, Carlsbad, Calif.), and 2 mM L-glutamine. Cells were cultured for fewer than 4 passages prior to implantation. Female SCID mice (Fox Chase SCID, CB-17, mice weighing 17 to 19 g obtained from Charles River Laboratories, Wilmington, Mass.) were injected subcutaneously (s.c.) with 5×10^6 SNU-5 cells into the right dorsal axillary region on Day 0. Treatments were initiated on Day 25 when the average tumor volume reached approximately 358 mm^3.
Compound 1, formulated in a vehicle containing 30% (w/v) Propylene Glycol and 10% Solutol (Sigma-Aldrich, St Louis, Mo.) as a suspended homogenous form, was administered orally (p.o.) once daily (QD) at total daily doses of 3, 10, and 30 mg/kg/day for 14 days. Tumor volumes (calculated using the ellipsoid formula, (length×width^2)/2, where length and width represented the largest and smallest dimensions of the tumor, respectively) were recorded for two weeks after the initiation of treatment. The study was terminated 38 days after tumor implantation.

[4] = test system: A549 cells (A549HGF-lm1115); test: Inhibition of tumor metastasis to the lungs, subcutaneous A549HGF tumors in SCID mice; assay type: in vivo; conditions: for Luminescence of homogenized lung tissue, Mean / Luminescence of homogenized lung tissue, individual animal: study termination; for Luminescence of homogenized lung tissue, Mean: group mean; for Luminescence of homogenized lung tissue, individual animal: one value per animal ID
Description: Compound 1 was investigated for its ability to inhibit the metastasis of subcutaneously implanted tumors to the lungs of severe combined immunodeficient (SCID) mice. Accordingly, A549 cells (A549HGF-lm1115, transfected with hepatocyte growth factor, luciferase, and green fluorescent protein) were cultured in RPMI1640 medium (Invitrogen, Carlsbad, Calif.) supplemented with 10% fetal bovine serum (FBS) (Hyclone, Logan, Utah), 100 units/mL of penicillin, […] of streptomycin (Invitrogen, Carlsbad, Calif.), and 2 mM L-glutamine for fewer than 4 passages prior to implantation. 3-(Difluoro(quinolin-6-yl)methyl)-N-(1-methyl-1H-pyrazol-4-yl)-[1,2,4]triazolo[3,4-b][1,3,4]thiadiazol-6-amine (Compound 1) was formulated in a vehicle containing 0.5% (w/v) methylcellulose (Sigma-Aldrich, St Louis, Mo.) and 0.1% (v/v) Tween 80™ as a dissolved homogenous form, which was prepared fresh each day and administered to mice via oral gavage at a dosing volume of 10 mL/kg.
Female SCID mice were injected subcutaneously (s.c.) with 5×10^6 A549HGF cells into the right dorsal axillary region on Day 0. Treatments were initiated on the same day by oral administration (p.o.) of Compound 1 once daily (QD) at total daily doses of 30 and 60 mg/kg/day for 22 days. Ectopic tumor measurements were recorded twice a week for 3 weeks after the initiation of treatment.
In order to evaluate the anti-metastatic potential of Compound 1, at the termination of the study all animal lung tissues were harvested and lysed by homogenization for ex vivo quantification via luciferase luminescence.

Ki (c-Met [1]): < 20 nM | IC50 (c-Met [2]): < 20 nM
Compound: Cn1cc(Nc2nn3c(C(F)(F)c4ccc5ncccc5c4)nnc3s2)cn1 [Compound 1, 3-(difluoro(quinolin-6-yl)methyl)-N-(1-methyl-1H-pyrazol-4-yl)-[1,2,4]triazolo[3,4-b][1,3,4]thiadiazol-6-amine]
SNU-5 tumor volume ([3]; 3 mg/kg/day p.o. QD, Day 25 (treatment start), mean ± standard error): 356.1 ± 24.5 mm^3 | SNU-5 tumor volume ([3]; 3 mg/kg/day p.o. QD, Day 28, mean ± standard error): 432.6 ± 31.2 mm^3 | SNU-5 tumor volume ([3]; 3 mg/kg/day p.o. QD, Day 31, mean ± standard error): 511.9 ± 36.3 mm^3 | SNU-5 tumor volume ([3]; 3 mg/kg/day p.o. QD, Day 35, mean ± standard error): 587.8 ± 39.5 mm^3 | SNU-5 tumor volume ([3]; 3 mg/kg/day p.o. QD, Day 38, mean ± standard error): 670.4 ± 46.2 mm^3 | SNU-5 tumor weight at study termination, Mean ([3]; 3 mg/kg/day): 619.9 | SNU-5 tumor weight at study termination, individual animal ([3]; 3 mg/kg/day): 619 and 505 and 525 and 485 and 605 and 655 and 851 and 770 and 405 and 790 and 938 and 508 and 368 and 679 and 596 | percent tumor weight reduction vs vehicle control ([3]; 3 mg/kg/day): 34.5% | SNU-5 tumor volume ([3]; 10 mg/kg/day p.o. QD, Day 25 (treatment start), mean ± standard error): 358.0 ± 17.1 mm^3 | SNU-5 tumor volume ([3]; 10 mg/kg/day p.o. QD, Day 28, mean ± standard error): 354.2 ± 21.7 mm^3 | SNU-5 tumor volume ([3]; 10 mg/kg/day p.o. QD, Day 31, mean ± standard error): 381.8 ± 25.6 mm^3 | SNU-5 tumor volume ([3]; 10 mg/kg/day p.o. QD, Day 35, mean ± standard error): 406.6 ± 23.4 mm^3 | SNU-5 tumor volume ([3]; 10 mg/kg/day p.o. QD, Day 38, mean ± standard error): 453.9 ± 27.3 mm^3 | SNU-5 tumor weight at study termination, Mean ([3]; 10 mg/kg/day): 385.7 | SNU-5 tumor weight at study termination, individual animal ([3]; 10 mg/kg/day): 319 and 476 and 358 and 469 and 279 and 660 and 418 and 400 and 387 and 410 and 349 and 275 and 305 and 371 and 309 | percent tumor weight reduction vs vehicle control ([3]; 10 mg/kg/day): 59.3% | SNU-5 tumor volume ([3]; 30 mg/kg/day p.o. QD, Day 25 (treatment start), mean ± standard error): 359.5 ± 35.1 mm^3 | SNU-5 tumor volume ([3]; 30 mg/kg/day p.o. QD, Day 28, mean ± standard error): 281.3 ± 28.7 mm^3 | SNU-5 tumor volume ([3]; 30 mg/kg/day p.o. QD, Day 31, mean ± standard error): 256.5 ± 23.6 mm^3 | SNU-5 tumor volume ([3]; 30 mg/kg/day p.o. QD, Day 35, mean ± standard error): 255.7 ± 21.1 mm^3 | SNU-5 tumor volume ([3]; 30 mg/kg/day p.o. QD, Day 38, mean ± standard error): 273.4 ± 24.2 mm^3 | SNU-5 tumor weight at study termination, Mean ([3]; 30 mg/kg/day): 251.2 | SNU-5 tumor weight at study termination, individual animal ([3]; 30 mg/kg/day): 180 and 173 and 260 and 420 and 250 and 156 and 350 and 327 and 150 and 246 | tumor regression by tumor volume analysis ([3]; 30 mg/kg/day, P<0.001): −23.9% | percent tumor weight reduction vs vehicle control ([3]; 30 mg/kg/day): 73.5% | anti-tumor activity ([3]; all three dose levels tested (3, 10, 30 mg/kg/day)): significant and dose-dependent anti-tumor activity | Luminescence of homogenized lung tissue, Mean ([4]; 30 mg/kg/day): 12740.8 counts | Luminescence of homogenized lung tissue, individual animal ([4]; 30 mg/kg/day): 3890 counts and 5270 counts and 2270 counts and 2620 counts and 17200 counts and 21300 counts and 6430 counts and 4340 counts and 65400 counts and 2230 counts and 16300 counts and 5640 counts | formation of lung metastases ([4]; 60 mg/kg/day compared to vehicle controls, p<0.02): significantly inhibits | Luminescence of homogenized lung tissue, Mean ([4]; 60 mg/kg/day, p<0.02 vs vehicle): 6672.3±1986.1 counts and 6672.3 counts | Luminescence of homogenized lung tissue, individual animal ([4]; 60 mg/kg/day): 2170 counts and 1480 counts and 2540 counts and 19300 counts and 21100 counts and 3800 counts and 16500 counts and 1440 counts and 2620 counts and 2920 counts and 5540 counts and 4860 counts and 2470 counts | change in primary A549 tumor cell growth at the site of implantation vs vehicle ([4]; 30 or 60 mg/kg/day p.o. QD, 22 days): no significant change
